The assay deals with Human recombinant GST-PI3K. As to the kind of experiment: PI3K induced-lipid phosphorylation, neomycin-SPA scintillation proximity assay. It counts as biochemical. The conditions noted are these: Human recombinant GST-PI3K, SPA. The text has this:
The efficacy of compounds of the invention in inhibiting the PI3K induced-lipid phosphorylation may be tested in the following binding assay. The assay combines the scintillation proximity assay technology (SPA, Amersham) with the capacity of neomycin (a polycationic antibiotic) to bind phospholipids with high affinity and specificity. The Scintillation Proximity Assay is based on the properties of weakly emitting isotopes (such as ^3H, ^125I, ^33P). Coating SPA beads with neomycin allows the detection of phosphorylated lipid substrates after incubation with recombinant PI3K and radioactive ATP in the same well, by capturing the radioactive phospholipids to the SPA beads through their specific binding to neomycin.
To a 96 wells MTP containing 10 μL of the test compound of Formula (I) (solubilized in 10% DMSO; […]), the following assay components are added: 1) 10 μL of lipid micelles 2) 20 μL of Kinase buffer ([^33P]γATP162 μM/300 nCi, MgCl2 2.5 mM, DTT 2.5 mM, Na3VO4 25 uM in Hepes 40 mM, pH 7.4) and 3) 10 μL (100 ng) of Human recombinant GST-PI3K (in Hepes 40 mM, pH 7.4, ethylenglycol 4%). After incubation at room temperature for 120 minutes, with gentle agitation, the reaction is stopped by addition of 200 μL of a solution containing 250 μg of neomycin-coated PVT SPA beads, ATP 60 mM and EDTA 6.2 mM in PBS. The assay is further incubated at room temperature for 60 minutes with gentle agitation to allow binding of phospholipids to neomycin-SPA beads. After precipitation of the neomycin-coated PVT SPA beads for 5 minutes at 1500×g, radioactive PtdIns(3)P is quantified by scintillation counting in a Wallac MicroBeta™ plate counter.
The values indicated in Table I below refer to the IC50 (μM) with respect to PI3K, i.e. the amount necessary to achieve 50% inhibition of said target. Said values show a considerable inhibitory potency of quinoxaline compounds with regard to PI3K.

pIC50: −log10 of the molar value.

In general, pIC50 refers to the IC50 on a negative log10 scale, so that one unit is a factor of ten. In the case of `COc1cc(Nc2nc3ccccc3nc2NS(=O)(=O)c2cn(C)cn2)cc(C(=O)NCCO)c1` [Example 67, N-(2-Hydroxyethyl)-3-methoxy-5-[(3-{[(1-methyl-1H-imidazol-4-yl)sulfonyl]amino}quinoxalin-2-yl)amino]benzamide], the pIC50 is 7.00.

With `COc1ccc(CCCS(C)(=O)=O)c(Nc2nc3ccccc3nc2NS(=O)(=O)c2cn(C)cn2)c1` [Example 68, N-[3-({5-Methoxy-2-[3-(methylsulfonyl)propyl]phenyl}amino)quinoxalin-2-yl]-1-methyl-1H-imidazole-4-sulfonamide], the pIC50 was 7.30.

As for `COc1ccc(CCO)c(Nc2nc3ccccc3nc2NS(=O)(=O)c2ccc(NC(=O)CO)cc2)c1` [Example 69, 2-Hydroxy-N-(4-{[(3-{[2-(2-hydroxyethyl)-5-methoxyphenyl]amino}quinoxalin-2-yl)amino]sulfonyl}phenyl)acetamide], the pIC50 is 7.19.

With `COc1ccc(CCO)c(Nc2nc3ccccc3nc2NS(=O)(=O)c2ccc(NC(=O)CN(C)C)cc2)c1` [Example 70, 2-Dimethylamino-N-(4-{[(3-{[2-(2-hydroxyethyl)-5-methoxyphenyl]amino}quinoxalin-2-yl)]sulfamoyl}phenyl)-acetamide], the negative-log IC50 (pIC50) is 7.57.

As to `COc1ccc(CCCO)c(Nc2nc3ccccc3nc2NS(=O)(=O)c2ccc(NC(=O)CN(C)C)cc2)c1` [Example 71, 2-Dimethylamino-N-(4-{[(3-{[2-(3-hydroxypropyl)-5-methoxyphenyl]amino}quinoxalin-2-yl)]sulfamoyl}phenyl)-acetamide], the pIC50 was 7.49.

`COc1ccc(CCCO)c(Nc2nc3ccccc3nc2NS(=O)(=O)c2cccc(NC(=O)COCc3ccccc3)c2)c1` [Example 72]: the pIC50 was 6.32.

In the case of `COc1cc(Nc2nc3ccccc3nc2NS(=O)(=O)CCCS(C)(=O)=O)cc(C(=O)NCCO)c1` [Example 73, N-(2-Hydroxyethyl)-3-methoxy-5-{[3-({[3-(methylsulfonyl)propyl]sulfonyl}amino)quinoxalin-2-yl]amino}benzamide], the pIC50 is 6.46.

As to `COc1ccc(CCCO)c(Nc2nc3ccccc3nc2NS(=O)(=O)c2cn(C)c(CO)n2)c1` [Example 74, 2-(Hydroxymethyl)-N-(3-{[2-(3-hydroxypropyl)-5-methoxyphenyl]amino}quinoxalin-2-yl)-1-methyl-1H-imidazole-4-sulfonamide], the pIC50 is 7.08.

On to `COc1cc(Nc2nc3ccccc3nc2NS(=O)(=O)c2cn(C)cn2)cc(C(=O)N(C)C)c1` [Example 75, 3-Methoxy-N,N-dimethyl-5-[(3-{[(1-methyl-1H-imidazol-4-yl)sulfonyl]amino}quinoxalin-2-yl)amino]benzamide], for which the pIC50 is 6.12.

In the case of `COc1ccc(CCCO)c(Nc2nc3ccccc3nc2NS(=O)(=O)c2cn(C)c(CS(C)(=O)=O)n2)c1` [Example 76, N-(3-{[2-(3-Hydroxypropyl)-5-methoxyphenyl]amino}quinoxalin-2-yl)-1-methyl-2-[(methylsulfonyl)methyl]-1H-imidazole-4-sulfonamide], the pIC50 was 7.06.

`COc1ccc(CC(O)CO)c(Nc2nc3ccccc3nc2NS(=O)(=O)c2cn(C)cn2)c1` [Example 77, N-[3-({2-[(2R,2S)-2,3-Dihydroxypropyl]-5-methoxyphenyl}amino)quinoxalin-2-yl]-1-methyl-1H-imidazole-4-sulfonamide]: the pIC50 was 6.92.

As for `COc1ccc(CCCO)c(Nc2nc3ccccc3nc2NS(=O)(=O)c2cccc(NC(=O)CN(C)C)c2)c1` [Example 78, 2-Dimethylamino-N-(3-{[(3-{[2-(3-hydroxypropyl)-5-methoxyphenyl]amino}quinoxalin-2-yl)]sulfamoyl}phenyl)-acetamide], the pIC50 was 7.52.

As for `COCCc1ccc(OC)cc1Nc1nc2ccccc2nc1NS(=O)(=O)c1cn(C)c(CS(C)(=O)=O)n1` [Example 79, N-(3-{[5-Methoxy-2-(2-methoxyethyl)phenyl]amino}quinoxalin-2-yl)-1-methyl-2-[(methylsulfonyl)methyl]-1H-imidazole-4-sulfonamide], the pIC50 was 6.70.

In the case of `COCCNC(=O)c1cc(Nc2nc3ccccc3nc2NS(=O)(=O)c2cn(C)cn2)cc(OC)c1` [Example 80, 3-Methoxy-N-(2-methoxyethyl)-5-[(3-{[(1-methyl-1H-imidazol-4-yl)sulfonyl]amino}quinoxalin-2-yl)amino]benzamide], the negative-log IC50 (pIC50) is 6.40.

As to `COc1ccc(CN2CCN(C)CC2)c(Nc2nc3ccccc3nc2NS(=O)(=O)c2ccc(F)cc2)c1` [Example 82, 4-fluoro-N-[3-({5-methoxy-2-[(4-methylpiperazin-1-yl)methyl]phenyl}amino)quinoxalin-2-yl]benzenesulfonamide], the pIC50 is 6.96.

In the case of `COc1ccc(CN2CCOCC2)c(Nc2nc3ccccc3nc2NS(=O)(=O)c2cccnc2)c1` [Example 83, N-(3-{[5-methoxy-2-(morpholin-4-ylmethyl)phenyl]amino}quinoxalin-2-yl)pyridine-3-sulfonamide], the pIC50 was 7.14.

For the molecule `COc1ccc(CC2CCC(O)CC2)c(Nc2nc3ccccc3nc2NS(=O)(=O)c2ccc(CN(C)C)cc2)c1` (stereo not drawn) [Example 84, 4-[(dimethylamino)methyl]-N-[3-({2-[(4-hydroxycyclohexyl)methyl]-5-methoxyphenyl}amino)quinoxalin-2-yl]benzenesulfonamide], the pIC50 is 7.59.

On to `COc1ccc(CC2CCS(=O)(=O)CC2)c(Nc2nc3ccccc3nc2NS(=O)(=O)c2ccc(CN(C)C)cc2)c1` [Example 85, 4-[(dimethylamino)methyl]-N-[3-({2-[(1,1-dioxidotetrahydro-2H-thiopyran-4-yl)methyl]-5-methoxyphenyl}amino)quinoxalin-2-yl]benzenesulfonamide], for which the pIC50 is 8.00.

On to `COc1ccc(CC2CCCCC2)c(Nc2nc3ccccc3nc2NS(=O)(=O)c2ccc(CN(C)C)cc2)c1` [Example 87, N-(3-{[2-(cyclohexylmethyl)-5-methoxyphenyl]amino}quinoxalin-2-yl)-4-[(dimethylamino)methyl]benzenesulfonamide], for which the pIC50 was 6.12.

As for `COc1ccc(CC2CCSCC2)c(Nc2nc3ccccc3nc2NS(=O)(=O)c2ccc(CN(C)C)cc2)c1` [Example 88, 4-[(dimethylamino)methyl]-N-(3-{[5-methoxy-2-(tetrahydro-2H-thiopyran-4-ylmethyl)phenyl]amino}quinoxalin-2-yl)benzenesulfonamide], the pIC50 was 7.46.

Turning to `COc1ccc(CCO)c(Nc2nc3ccccc3nc2NS(=O)(=O)c2ccc(CN(C)C)cc2)c1` [Example 89, 4-[(Dimethylamino)methyl]-N-(3-{[2-(2-hydroxyethyl)-5-methoxyphenyl]amino}quinoxalin-2-yl)benzenesulfonamide], the pIC50 was 7.59.

Consider `COc1ccc(CCO)c(Nc2nc3ccccc3nc2NS(=O)(=O)c2ccc(CN3CCC(F)CC3)cc2)c1` [Example 90], for which the pIC50 was 7.37.

With `COc1ccc(CO)c(Nc2nc3ccccc3nc2NS(=O)(=O)c2cn(C)cn2)c1` [Example 91, N-(3-{[2-(hydroxymethyl)-5-methoxyphenyl]amino}quinoxalin-2-yl)-1-methyl-1H-imidazole-4-sulfonamide], the pIC50 was 6.33.

As for `COc1cc(CN2CCN(C)CC2)cc(Nc2nc3ccccc3nc2NS(=O)(=O)c2cccnc2)c1` [Example 92, N-[3-({3-methoxy-5-[(4-methylpiperazin-1-yl)methyl]phenyl}amino)quinoxalin-2-yl]pyridine-3-sulfonamide], the pIC50 was 6.01.

For the origin of these results see patent publication US8614215B2, “Quinoxaline inhibitors of phosphoinositide-3-kinases (PI3Ks)” (Merck Serono SA, priority 2007, dated 2013).
